Experimental data published in the supplement of paper PMC10307832.

Columns and labels:
Assay in all cases: relative viability (nuclei count vs DMSO), 5 days (fraction); higher = more cells survive
[1] = test system: NCI-H2342
How it was run: (§1)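 Lung cancer cell lines in 1536-well plates got either a single drug or a fixed anchor-drug dose together with five library-drug doses (not always all listed) in √10 steps, by pin tool, on the day after seeding. Nuclei were counted after 5 days, and relative viability is the treated-to-vehicle ratio of nuclei counts. Values are medians of duplicate plates.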

[2] = test system: NCI-H522
How it was run: as §1

[3] = test system: SW 900
How it was run: as §1

[4] = test system: NCI-H1648
How it was run: as §1

[5] = test system: NCI-H1563
How it was run: as §1

[6] = test system: NCI-H1299
How it was run: as §1

[7] = test system: IA-LM
How it was run: as §1

[8] = test system: EBC-1
How it was run: as §1

[9] = test system: NCI-H1703
How it was run: as §1

[10] = test system: A549
How it was run: as §1

[11] = test system: Calu-6
How it was run: as §1

Compound: O=C(O)CCCCC(CCSCc1ccccc1)SCc1ccccc1 (stereo not drawn) [CPI-613] + CC(=O)Nc1cccc(-n2c(=O)n(C3CC3)c(=O)c3c(Nc4ccc(I)cc4F)n(C)c(=O)c(C)c32)c1 [Trametinib] (partner 0.02 µM)
- relative viability ([1]; first compound 5 µM): 0.747
- relative viability ([1]; first compound 15.81 µM): 0.888
- relative viability ([1]; first compound 50 µM): 0.977
- relative viability ([1]; first compound 158.11 µM): 0.786
- relative viability ([1]; first compound 500 µM): 0.955
- relative viability ([2]; first compound 5 µM): 0.707
- relative viability ([2]; first compound 15.81 µM): 0.739
- relative viability ([2]; first compound 50 µM): 0.751
- relative viability ([2]; first compound 158.11 µM): 0.651
- relative viability ([2]; first compound 500 µM): 0.284
- relative viability ([3]; first compound 5 µM): 0.701
- relative viability ([3]; first compound 50 µM): 0.706
- relative viability ([3]; first compound 158.11 µM): 0.359
- relative viability ([3]; first compound 500 µM): 0.0323
- relative viability ([4]; first compound 5 µM): 0.454
- relative viability ([4]; first compound 15.81 µM): 0.376
- relative viability ([4]; first compound 50 µM): 0.533
- relative viability ([4]; first compound 158.11 µM): 0.218
- relative viability ([4]; first compound 500 µM): 0.14

Compound: O=C(O)CCCCC(CCSCc1ccccc1)SCc1ccccc1 (stereo not drawn) [CPI-613] + Nc1nc2[nH]cc(CCc3ccc(C(=O)N[C@@H](CCC(=O)O)C(=O)O)cc3)c2c(=O)[nH]1 [Pemetrexed] (partner 0.2 µM)
- relative viability ([1]; first compound 5 µM): 0.743
- relative viability ([1]; first compound 15.81 µM): 0.761
- relative viability ([1]; first compound 50 µM): 0.804
- relative viability ([1]; first compound 158.11 µM): 0.744
- relative viability ([1]; first compound 500 µM): 0.785
- relative viability ([2]; first compound 5 µM): 1.04
- relative viability ([2]; first compound 15.81 µM): 1.06
- relative viability ([2]; first compound 50 µM): 1.3
- relative viability ([2]; first compound 158.11 µM): 0.857
- relative viability ([2]; first compound 500 µM): 0.473
- relative viability ([3]; first compound 5 µM): 0.451
- relative viability ([3]; first compound 50 µM): 0.47
- relative viability ([3]; first compound 158.11 µM): 0.372
- relative viability ([3]; first compound 500 µM): 0.0088
- relative viability ([4]; first compound 5 µM): 0.639
- relative viability ([4]; first compound 15.81 µM): 0.623
- relative viability ([4]; first compound 50 µM): 0.823
- relative viability ([4]; first compound 158.11 µM): 0.527
- relative viability ([4]; first compound 500 µM): 0.139
- relative viability ([5]; first compound 5 µM): 0.732
- relative viability ([5]; first compound 15.81 µM): 0.713
- relative viability ([5]; first compound 50 µM): 0.727
- relative viability ([5]; first compound 158.11 µM): 0.631
- relative viability ([5]; first compound 500 µM): 0.394

Compound: Cc1cnc(-c2cnc(NCCNc3ccc(C#N)cn3)nc2-c2ccc(Cl)cc2Cl)[nH]1 + C[C@@H](Oc1cc(-c2cnn(C3CCNCC3)c2)cnc1N)c1c(Cl)ccc(F)c1Cl [Crizotinib] (partner 1 µM)
- relative viability ([6]; first compound 0.08 µM): 0.963
- relative viability ([6]; first compound 0.253 µM): 0.952
- relative viability ([6]; first compound 0.8 µM): 0.989
- relative viability ([6]; first compound 2.53 µM): 0.845
- relative viability ([7]; first compound 0.08 µM): 0.835
- relative viability ([7]; first compound 0.253 µM): 0.817
- relative viability ([7]; first compound 0.8 µM): 0.903
- relative viability ([7]; first compound 2.53 µM): 0.803
- relative viability ([5]; first compound 0.08 µM): 0.92
- relative viability ([5]; first compound 0.253 µM): 0.891
- relative viability ([5]; first compound 0.8 µM): 0.767
- relative viability ([5]; first compound 2.53 µM): 0.903
- relative viability ([8]; first compound 0.08 µM): 0.191
- relative viability ([8]; first compound 0.253 µM): 0.217
- relative viability ([8]; first compound 0.8 µM): 0.191
- relative viability ([8]; first compound 2.53 µM): 0.19
- relative viability ([9]; first compound 0.08 µM): 0.93
- relative viability ([9]; first compound 0.253 µM): 0.622
- relative viability ([9]; first compound 0.8 µM): 0.861
- relative viability ([9]; first compound 2.53 µM): 0.73
- relative viability ([10]; first compound 0.08 µM): 0.784
- relative viability ([10]; first compound 0.253 µM): 0.692
- relative viability ([10]; first compound 0.8 µM): 0.964
- relative viability ([10]; first compound 2.53 µM): 0.803
- relative viability ([11]; first compound 0.08 µM): 0.862
- relative viability ([11]; first compound 0.253 µM): 0.752
- relative viability ([11]; first compound 0.8 µM): 0.81
- relative viability ([11]; first compound 2.53 µM): 0.513

Compound: Cc1cnc(-c2cnc(NCCNc3ccc(C#N)cn3)nc2-c2ccc(Cl)cc2Cl)[nH]1 + CS(=O)(=O)N1CCN(Cc2cc3nc(-c4cccc5[nH]ncc45)nc(N4CCOCC4)c3s2)CC1 [Pictilisib] (partner 1 µM)
- relative viability ([6]; first compound 0.08 µM): 0.822
- relative viability ([6]; first compound 0.253 µM): 0.754
- relative viability ([6]; first compound 0.8 µM): 0.861
- relative viability ([6]; first compound 2.53 µM): 0.426
- relative viability ([7]; first compound 0.08 µM): 0.362
- relative viability ([7]; first compound 0.253 µM): 0.408
- relative viability ([7]; first compound 2.53 µM): 0.483
- relative viability ([5]; first compound 0.08 µM): 0.649
- relative viability ([5]; first compound 0.253 µM): 0.72
- relative viability ([5]; first compound 0.8 µM): 0.709
- relative viability ([5]; first compound 2.53 µM): 0.725
- relative viability ([8]; first compound 0.08 µM): 0.421
- relative viability ([8]; first compound 0.253 µM): 0.368
- relative viability ([8]; first compound 0.8 µM): 0.549
- relative viability ([8]; first compound 2.53 µM): 0.567
- relative viability ([9]; first compound 0.08 µM): 0.256
- relative viability ([9]; first compound 0.253 µM): 0.252
- relative viability ([9]; first compound 0.8 µM): 0.23
- relative viability ([9]; first compound 2.53 µM): 0.314
- relative viability ([10]; first compound 0.08 µM): 0.597
- relative viability ([10]; first compound 0.253 µM): 0.482
- relative viability ([10]; first compound 0.8 µM): 0.764
- relative viability ([10]; first compound 2.53 µM): 0.775
- relative viability ([11]; first compound 0.08 µM): 0.923
- relative viability ([11]; first compound 0.253 µM): 0.934
- relative viability ([11]; first compound 0.8 µM): 1.05
- relative viability ([11]; first compound 2.53 µM): 0.911
